From US7368287B2, “Use of L-α-lysophosphatidylcholine to obtain the differentiation of monocytes into mature dendritic cells in vitro” (Biomerieux, priority 2002, dated 2008)

How the values were obtained:
[1] = test system: naïve allogenic T lymphocytes; assay: Stimulation of IL-2 and γIFN secretion by allogenic T lymphocytes (mixed leukocyte reaction, ELISA); assay type: cell-based, human; design: unit not given here; details: for Secretion of IL-2 by T lymphocytes / Secretion of γIFN by T lymphocytes: after 4 days; for Secretion of γIFN by T lymphocytes: Table 3; for Dendritic cell-induced secretion of γIFN by T lymphocytes: Table 8
Method: The “control” and “LPC” cells used in this analysis are those obtained after 6 days of differentiation according to the protocol described in example 1.
Naïve allogenic T lymphocytes are isolated from human peripheral blood. Peripheral blood mononuclear cells are isolated by density gradient centrifugation (600 g, 20 minutes) in the presence of Ficoll-Hypaque. After elimination of the monocytes on a Percoll gradient, the peripheral blood lymphocytes are found in the dense fraction. The T lymphocytes are purified by immunomagnetic depletion using a cocktail of anti-CD19 (antibody 4G7) (Becton Dickinson, Francklin Lakes, N.J., USA), anti-CD16 (antibody 3G8), anti-CD56 (antibody NKH1), anti-glycophorin A (antibody 11E4B7.6) and anti-CD14 (antibody RMPO52), monoclonal antibodies sold by Beckman Coulter.
The purified T lymphocytes are cultured in flat-bottomed 96-well culture plates with the “control” or “LPC” cells.
2×10^5T cells are cultured in 200 μl of culture medium according to a monocytes differentiated in the presence or absence of LPC/T cells ratio (DC/LT ratio) of 1:5, 1:10 or 1:20. After 4 days, 50 μl of the culture supernatant are used to determine the secretion of IL-2 (interleukin 2) and of γIFN (gamma interferon) using an ELISA kit (Endogen, Woburn, Mass., USA).
The inventors then used a PPARγ agonist, ciglitizone. A solution of ciglitizone (Sigma, 50 μM) was added to the culture medium on the fifth day of monocyte differentiation, as described in example 1, 15 minutes before the addition of a solution of LPC (40 μM, for […]). The cells obtained are “LPC+ciglitizone” cells. “Ciglitizone” cells were obtained according to the same protocol, but in the absence of LPC, and “LPC” cells were obtained as described in example 1, in the absence of ciglitizone.
The functional ability of these cells (“control”, “ciglitazone” and “LPC+ciglitazone” cells) to stimulate T lymphocytes (LT) were then analyzed. These cells were cultured as described in example 4, in the presence of purified allogenic T lymphocytes. The secretion of γIFN was measured as in example 4.

[2] = biological target: T1, PPARγ (Homo sapiens, UniProt P37231); assay: PPAR binding activity by gel shift on nuclear proteins of treated monocytes; assay type: cell-based
T1 construct: After having harvested the cells, the nuclear proteins were extracted with the Nuclear extract Kit (Sigma); endogenous in cells; host or cells: monocytes undergoing differentiation into dendritic cells (nuclear extract)
T1 sequence (P37231 1-505): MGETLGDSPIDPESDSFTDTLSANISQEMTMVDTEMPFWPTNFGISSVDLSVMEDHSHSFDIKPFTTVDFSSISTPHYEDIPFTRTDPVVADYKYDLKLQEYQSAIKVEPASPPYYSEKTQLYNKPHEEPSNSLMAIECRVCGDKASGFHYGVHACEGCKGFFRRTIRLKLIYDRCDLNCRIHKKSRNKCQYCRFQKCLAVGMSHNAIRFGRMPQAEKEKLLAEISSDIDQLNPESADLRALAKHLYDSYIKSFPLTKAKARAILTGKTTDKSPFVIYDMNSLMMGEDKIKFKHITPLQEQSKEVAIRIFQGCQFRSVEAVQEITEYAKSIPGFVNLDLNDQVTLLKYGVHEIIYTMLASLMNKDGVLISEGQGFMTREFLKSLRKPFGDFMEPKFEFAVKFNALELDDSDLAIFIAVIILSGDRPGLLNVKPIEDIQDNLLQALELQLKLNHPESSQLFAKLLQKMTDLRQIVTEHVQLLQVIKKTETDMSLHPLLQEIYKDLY
Method: Next, the inventors investigated the transcription factors involved in the maturation process induced by LPC. In order to determine whether PPARs are involved in the LPC-induced maturation, the ability of the two transcription factors PPARγ and PPARδ to bind was analyzed using the gel shift technique. 3 isotypes of PPAR nuclear receptors (peroxisome proliferator-activated receptor) exist: α, γ and δ. PPARγs are the targets for molecules of the thiazolidinedione class, such as ciglitizone, used in the treatment of type II diabetes. PPARδs have a broader expression and can be repressors of PPARγs. The monocytes undergoing differentiation were incubated for two hours with a solution of LPC (40 μM) (“LPC” cells). “Control” cells are also obtained in the absence of LPC in the culture medium. After having harvested the cells, the nuclear proteins were extracted with the Nuclear extract Kit (Sigma). The nuclear proteins were then brought into contact with a ratioactively labeled probe containing a response element recognized by PPARs. […] The PPAR binding activity was determined by measuring the intensity of these bands. These activities are expressed as a percentage with respect to the “control” cells. […]
The activity of the PPARγ and PPARδ transcription factors was measured in these cells by the gel shift technique, as described above.
INTRALIPID® regulates PPARs in vitro. […] The cells were harvested after 1 h, 2 h or 8 h of incubation with INTRALIPID®, the nuclear proteins were extracted and the activity of PPARγ and PPARδ was determined as described in example 6.
Secondly, a solution of INTRALIPID® (50 μg/ml of phospholipids) was added to the culture medium on the 5th day of monocyte differentiation, 15 minutes before the addition of a solution of LPC (40 μM) (“LPC+Intralipid” cells). […] The cells were harvested after 2 h of incubation, the nuclear proteins were extracted and the activity of PPARγ and PPARδ was determined as described in example 6.

Substance: L-α-lysophosphatidylcholine [LPC]
- Secretion of IL-2 by T lymphocytes ([1]; DC/LT ratio 0): 0
- Secretion of IL-2 by T lymphocytes ([1]; DC/LT ratio 0.05): 23 ± 1
- Secretion of IL-2 by T lymphocytes ([1]; DC/LT ratio 0.1): 47 ± 26
- Secretion of IL-2 by T lymphocytes ([1]; DC/LT ratio 0.2): 173 ± 31
- Secretion of γIFN by T lymphocytes ([1]; DC/LT ratio 0): 0
- Secretion of γIFN by T lymphocytes ([1]; DC/LT ratio 0.05): 73 ± 47
- Secretion of γIFN by T lymphocytes ([1]; DC/LT ratio 0.1): 439 ± 108
- Secretion of γIFN by T lymphocytes ([1]; DC/LT ratio 0.2): 795 ± 19
- Dendritic cell-induced secretion of γIFN by T lymphocytes ([1]; DC/LT ratio 0): 0
- Dendritic cell-induced secretion of γIFN by T lymphocytes ([1]; DC/LT ratio 0.05): 750 ± 184
- Dendritic cell-induced secretion of γIFN by T lymphocytes ([1]; DC/LT ratio 0.1): 899 ± 124
- Dendritic cell-induced secretion of γIFN by T lymphocytes ([1]; DC/LT ratio 0.2): 1326 ± 248
- PPARγ binding activity ([2]; Table 6, LPC 40 μM, two hours, percentage with respect to control cells): 0%
- PPARγ activity ([2]; Table 16, Intralipid 50 μg/ml phospholipids 15 minutes before LPC 40 μM, 2 h, control = 100%): 1%
